Legend:
[1] = target: T1, Protein farnesyltransferase subunit beta/geranylgeranyltransferase type-1 subunit alpha (Saccharomyces cerevisiae (strain ATCC 204508 / S288c), UniProt P22007+P29703); experiment: Yeast FTase Assay; conditions: pH 7.5
T1 sequence (P22007 whole entry): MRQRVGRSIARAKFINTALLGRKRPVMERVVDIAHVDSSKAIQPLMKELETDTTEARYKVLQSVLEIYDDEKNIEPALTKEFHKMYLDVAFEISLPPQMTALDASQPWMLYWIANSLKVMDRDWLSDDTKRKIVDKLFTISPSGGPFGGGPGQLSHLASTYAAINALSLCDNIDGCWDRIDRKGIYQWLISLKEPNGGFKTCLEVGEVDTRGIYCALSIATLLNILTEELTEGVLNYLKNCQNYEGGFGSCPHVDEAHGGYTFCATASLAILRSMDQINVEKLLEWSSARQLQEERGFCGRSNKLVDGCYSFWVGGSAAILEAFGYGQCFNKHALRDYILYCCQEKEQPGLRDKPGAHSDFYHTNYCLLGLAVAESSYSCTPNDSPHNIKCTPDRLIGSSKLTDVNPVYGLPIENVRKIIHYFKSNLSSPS
T1 sequence (P29703 whole entry): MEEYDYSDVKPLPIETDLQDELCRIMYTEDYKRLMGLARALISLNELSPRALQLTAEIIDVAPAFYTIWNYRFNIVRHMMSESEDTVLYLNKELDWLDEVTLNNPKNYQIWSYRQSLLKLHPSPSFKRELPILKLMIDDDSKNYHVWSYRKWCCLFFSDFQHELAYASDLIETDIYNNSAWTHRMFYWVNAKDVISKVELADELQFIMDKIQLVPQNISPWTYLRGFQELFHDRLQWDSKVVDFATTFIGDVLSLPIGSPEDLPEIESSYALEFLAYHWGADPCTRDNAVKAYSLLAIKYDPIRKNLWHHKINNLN
Description: Assays were realized on 96-well plates, prepared with Biomek NKMC and Biomek 3000 from Beckman Coulter and read on Wallac Victor fluorimeter from Perkin-Elmer. Per well, 20 μL of farnesyl pyrophosphate (10 μM) was added to 180 μL of a solution containing 2 μL of varied concentrations of potential inhibitors (dissolved in DMSO) and 178 μL of a solution composed by 0.1 mL of partially purified recombinant yeast FTase (2.2 mg/ mL) and 7.0 mL of dansyl-GCVLS peptide (in the following buffer: 5.8 mM DTT, 6 mM MgCl2, 12 μM ZnCl2 and 0.09% (w/v) CHAPS, 53 mM Tris/HCl, pH 7.5). Then the fluorescence development was recorded for 15 min(0.7 second per well, 20 repeats) at 30°C with an excitation filter at 340 nm and an emission filter at 486 nm. Each measurement was realized twice as duplicate ortriplicate.

[2] = target: T2, Protein farnesyltransferase alpha subunit/subunit beta (Trypanosoma brucei brucei, UniProt Q9NC76+Q9NC77); experiment: T. brucei FTase Assay
T2 sequence (Q9NC77 whole entry): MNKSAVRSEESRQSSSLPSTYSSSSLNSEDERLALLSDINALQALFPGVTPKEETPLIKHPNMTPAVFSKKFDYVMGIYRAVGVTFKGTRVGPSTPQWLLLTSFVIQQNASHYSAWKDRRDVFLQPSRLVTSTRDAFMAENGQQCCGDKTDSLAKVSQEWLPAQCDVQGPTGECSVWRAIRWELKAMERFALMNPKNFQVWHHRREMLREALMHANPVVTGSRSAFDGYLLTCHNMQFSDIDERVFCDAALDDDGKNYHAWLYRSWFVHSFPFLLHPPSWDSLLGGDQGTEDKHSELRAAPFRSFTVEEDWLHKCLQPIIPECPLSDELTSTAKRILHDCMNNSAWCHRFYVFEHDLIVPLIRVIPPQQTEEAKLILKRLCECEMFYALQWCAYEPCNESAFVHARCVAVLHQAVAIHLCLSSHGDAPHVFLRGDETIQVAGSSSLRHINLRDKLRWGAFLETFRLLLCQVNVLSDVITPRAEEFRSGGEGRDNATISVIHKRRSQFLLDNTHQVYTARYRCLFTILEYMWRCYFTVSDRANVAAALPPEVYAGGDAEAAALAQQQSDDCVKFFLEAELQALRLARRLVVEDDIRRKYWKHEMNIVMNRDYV
T2 sequence (Q9NC76 whole entry): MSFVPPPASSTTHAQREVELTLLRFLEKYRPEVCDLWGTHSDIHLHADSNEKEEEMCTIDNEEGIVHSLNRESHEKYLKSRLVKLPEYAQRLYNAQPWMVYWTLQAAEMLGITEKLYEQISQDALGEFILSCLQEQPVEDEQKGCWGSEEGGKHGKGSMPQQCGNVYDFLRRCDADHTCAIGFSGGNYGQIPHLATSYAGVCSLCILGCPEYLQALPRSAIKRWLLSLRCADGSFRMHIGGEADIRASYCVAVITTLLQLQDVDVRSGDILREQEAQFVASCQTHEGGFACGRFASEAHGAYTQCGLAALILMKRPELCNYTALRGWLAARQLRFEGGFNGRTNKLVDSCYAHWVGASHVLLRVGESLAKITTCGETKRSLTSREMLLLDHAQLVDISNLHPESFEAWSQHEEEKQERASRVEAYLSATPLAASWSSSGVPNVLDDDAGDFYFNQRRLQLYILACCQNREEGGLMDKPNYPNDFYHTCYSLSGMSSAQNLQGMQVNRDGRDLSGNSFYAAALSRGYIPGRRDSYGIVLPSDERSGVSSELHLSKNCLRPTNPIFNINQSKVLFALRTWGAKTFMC
Description: Assays were realized on 96-well plates, as described for human FTase with the dansylated peptide Dansyl-GCAIM and the solution contains 15 μL of partially purified Tb-FTase (1.0 mg/mL) in 1 mL peptide solution.

[3] = target: Protein farnesyltransferase subunit beta/geranylgeranyltransferase type-1 subunit alpha (Homo sapiens, UniProt P49354+P49356); experiment: Human FTase Assay
Description: Assays were realized on 96-well plates, as described for yeast FTase but octyl-D-glucopyranoside (0.18%) was used instead of CHAPS and the solution contains 5 μLof partially purified human FTase (1.5 mg/mL)7 in 1 mL peptide solution.

| SMILES | IC50 [1] [µM] | IC50 [2] [µM] | IC50 [3] [µM] |
| --- | --- | --- | --- |
| CSCC[C@H](NC(=O)c1ccc(NC[C@@H](N)CS)cc1-c1ccccc1)C(=O)O [2-{[5-((R)-2-Amino-3-mercapto-propylamino)-biphenyl-2-carbonyl]-amino}-4-methylsulfanyl-butyric acid] | 0.00078 | 0.01 |  |
| CC(C)Sc1sc(C(=O)O)c(-c2cccc3oc4ccccc4c23)c1C#N [3-(1-Dibenzofuranyl)-4-cyano-5-(isopropylthio)thiophene-2-carboxylic acid (1gg)] | 1 | 3.3 | 15 |
| CC(C)Sc1sc(C(=O)O)c(-c2cccc3ccccc23)c1C#N [3-(1-Naphthyl)-4-cyano-5-(isopropylthio)thiophene-2-carboxylic acid (1x)] | 1.1 | 10.5 | 32 |
| CC(C)Sc1sc(C(=O)O)c(-c2ccccc2Cl)c1C#N [3-(2-Chlorophenyl)-4-cyano-5-(isopropylthio)thiophene-2-carboxylic acid (1c)] | 1.4 | 37 | > 50 |
| CC(C)Sc1sc(C(=O)O)c(-c2ccccc2F)c1C#N [3-(2-Fluorophenyl)-4-cyano-5-(isopropylthio)thiophene-2-carboxylic acid (1f)] | 1.3 | 46 | > 50 |
| COc1ccccc1-c1c(C(=O)O)sc(SC(C)C)c1C#N [3-(2-Methoxyphenyl)-4-cyano-5-(isopropylthio)thiophene-2-carboxylic acid (1l)] | 9.7 | 37 | > 50 |
| CC(C)Sc1sc(C(=O)O)c(-c2ccc3ccccc3c2)c1C#N [3-(2-Naphthyl)-4-cyano-5-(isopropylthio)thiophene-2-carboxylic acid (1y)] | 0.32 | 9.7 | 4.8 |
| Cc1ccccc1-c1c(C(=O)O)sc(SC(C)C)c1C#N [3-(2-Tolyl)-4-cyano-5-(isopropylthio)thiophene-2-carboxylic acid (1v)] | 3.1 | > 50 | > 50 |
| COC(=O)c1cccc(-c2c(C(=O)O)sc(SC(C)C)c2C#N)c1 [3-(3-(Methoxycarbonyl)phenyl)-4-cyano-5-(isopropylthio)thiophene-2-carboxylic acid (1q)] | 0.62 | 6.9 | 7 |
| CC(C)Sc1sc(C(=O)O)c(-c2cccc(C(F)(F)F)c2)c1C#N [3-(3-(Trifluoromethyl)phenyl)-4-cyano-5-(isopropylthio)thiophene-2-carboxylic acid (1h)] | 1.6 | 19 | 34 |
| CC(C)Sc1sc(C(=O)O)c(-c2cccc(-c3ccccc3)c2)c1C#N [3-(3-Biphenyl)-4-cyano-5-(isopropylthio)thiophene-2-carboxylic acid (1aa)] | 0.64 | 5.4 | 3.3 |
| CC(C)Sc1sc(C(=O)O)c(-c2cccc(Cl)c2)c1C#N [3-(3-Chlorophenyl)-4-cyano-5-(isopropylthio)thiophene-2-carboxylic acid (1b)] | 1.3 | 14.5 | 48 |
| CC(C)Sc1sc(C(=O)O)c(-c2cccc(F)c2)c1C#N [3-(3-Fluorophenyl)-4-cyano-5-(isopropylthio)thiophene-2-carboxylic acid (1e)] | 0.46 | 32 | 23 |
| COc1cccc(-c2c(C(=O)O)sc(SC(C)C)c2C#N)c1 [3-(3-Methoxyphenyl)-4-cyano-5-(isopropylthio)thiophene-2-carboxylic acid (1k)] | 1.6 | 18 |  |
| Cc1cccc(-c2c(C(=O)O)sc(SC(C)C)c2C#N)c1 [3-(3-Tolyl)-4-cyano-5-(isopropylthio)thiophene-2-carboxylic acid (1u)] | 1.4 | 34 | 16 |
| COC(=O)c1ccc(-c2c(C(=O)O)sc(SC(C)C)c2C#N)cc1 [3-(4-(Methoxycarbonyl)phenyl)-4-cyano-5-(isopropylthio)thiophene-2-carboxylic acid (1p)] | 0.085 | 14 | 12.8 |
| CC(C)Sc1sc(C(=O)O)c(-c2ccc(C(F)(F)F)cc2)c1C#N [3-(4-(Trifluoromethyl)phenyl)-4-cyano-5-(isopropylthio)thiophene-2-carboxylic acid (1g)] | 0.58 |  |  |
| CC(C)Sc1sc(C(=O)O)c(-c2ccc(-c3ccccc3)cc2)c1C#N [3-(4-Biphenyl)-4-cyano-5-(isopropylthio)thiophene-2-carboxylic acid (1z)] | 2.7 | 32 | 5.5 |
| CC(C)Sc1sc(C(=O)O)c(-c2ccc(Cl)cc2)c1C#N [3-(4-Chlorophenyl)-4-cyano-5-(isopropylthio)thiophene-2-carboxylic acid (1a)] | 0.11 | 10.6 |  |
| CC(C)Sc1sc(C(=O)O)c(-c2ccc(F)cc2)c1C#N [3-(4-Fluorophenyl)-4-cyano-5-(isopropylthio)thiophene-2-carboxylic acid (1d)] | 0.27 | 29 | 20 |
| COc1ccc(-c2c(C(=O)O)sc(SC(C)C)c2C#N)cc1 [3-(4-Methoxyphenyl)-4-cyano-5-(isopropylthio)thiophene-2-carboxylic acid (1j)] | 0.25 | 8.6 |  |
| Cc1ccc(-c2c(C(=O)O)sc(SC(C)C)c2C#N)cc1 [3-(4-Tolyl)-4-cyano-5-(isopropylthio)thiophene-2-carboxylic acid (1t)] | 0.19 | 17 | 21 |
| CC(C)Sc1sc(C(=O)O)c(-c2ccccc2)c1C#N [3-Phenyl-4-cyano-5-(isopropylthio)thiophene-2-carboxylic acid (1s)] | 0.61 | 42 | 34 |

From BindingDB's records for doi:10.3109/14756366.2011.643302 (Centre de Recherche de Gif, 2013)
